Results published in patent US20210380595A1 (ARAXES PHARMA LLC, priority 2018, published 2021).

Target: T1, KRAS G12C 1-169, his-tagged protein, GDP-loaded (Homo sapiens, UniProt P01116, G12C)
T1 construct: KRAS G12C 1-169, his-tagged protein, GDP-loaded
Assay: Biochemical assay: covalent modification of KRAS G12C measured by mass spectrometry (RapidFire/TOF or Q-Exactive); further: time not given here
Format: binding
Method in brief: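 GDP-loaded KRAS G12C 1-169 (his-tagged, 2 μM or 0.5 μM in 20 mM Hepes, 150 mM NaCl, 1 mM MgCl2) reacted with compound at 32 μM or 8 μM final, then quenched with formic acid. Intact-protein LC-MS (RapidFire/TOF or Q-Exactive) with charge-envelope deconvolution; % modification from modified vs unmodified peak intensities.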

**Q.** For C=CC(=O)N1CC2(CCN(c3cc(OCCN4CCCC4)c(F)c(-c4c(C)ccc5[nH]ncc45)c3C#N)CC2)C1 [Compound I-135, 6-(2-acryloyl-2,7-diazaspiro[3.5]nonan-7-yl)-3-fluoro-2-(5-methyl-1H-indazol-4-yl)-4-(2-(pyrrolidin-1-yl)ethoxy) benzonitrile], which Bind % (tested at 32 μM) is on record?
**A.** The Bind % was “+ (+ indicates binding activity greater than 0% and up to 50%)”.

**Q.** With C=CC(=O)N1CC2(CCN(c3cc(N4CCC(CN(C)C)CC4)c(F)c(-c4c(C)ccc5[nH]ncc45)c3C#N)CC2)C1 [Compound I-136, 6-(2-acryloyl-2,7-diazaspiro[3.5]nonan-7-yl)-4-(4-((dimethylamino)methyl)piperidin-1-yl)-3-fluoro-2-(5-methyl-1H-indazol-4-yl)benzonitrile] as the compound, how does the Bind % (tested at a concentration of 8 μM) read?
**A.** The Bind % was “+ (+ indicates binding activity greater than 0% and up to 50%)”.

**Q.** C=CC(=O)N1CC2(CCN(c3cccc(-c4c(C)ccc5[nH]ncc45)c3C#N)C2)C1CC (centres unmarked) [Compound I-137, 2-(2-acryloyl-1-ethyl-2,6-diazaspiro[3.4]octan-6-yl)-6-(5-methyl-1H-indazol-4-yl)benzonitrile] was tested. Which Bind % (tested at 32 μM) did it give?
**A.** The Bind % was “+ (+ indicates binding activity greater than 0% and up to 50%)”.

**Q.** C=CC(=O)N1CC2(CCN(c3cc(OCc4ccccn4)cc(-c4c(C)ccc5[nH]ncc45)c3C#N)C2)C1CC (centres unmarked) [Compound I-138] was tested. Which Bind % (tested at 32 μM) did it give?
**A.** The Bind % was “++ (++ indicates binding activity from 50 to 75%)”.

**Q.** Which Bind % (tested at 32 μM) does the source give for C=CC(=O)N1CC2(CCN(c3cccc(-c4c(C)ccc5[nH]ncc45)c3C#N)C2)C1C(C)C (centres unmarked) [Compound I-139, 2-(2-acryloyl-1-isopropyl-2,6-diazaspiro[3.4]octan-6-yl)-6-(5-methyl-1H-indazol-4-yl)benzonitrile] here?
**A.** The Bind % was “+ (+ indicates binding activity greater than 0% and up to 50%)”.
